The target in one test is T1, PTP1B (Homo sapiens, UniProt P18031).
T1 sequence (P18031 1-435): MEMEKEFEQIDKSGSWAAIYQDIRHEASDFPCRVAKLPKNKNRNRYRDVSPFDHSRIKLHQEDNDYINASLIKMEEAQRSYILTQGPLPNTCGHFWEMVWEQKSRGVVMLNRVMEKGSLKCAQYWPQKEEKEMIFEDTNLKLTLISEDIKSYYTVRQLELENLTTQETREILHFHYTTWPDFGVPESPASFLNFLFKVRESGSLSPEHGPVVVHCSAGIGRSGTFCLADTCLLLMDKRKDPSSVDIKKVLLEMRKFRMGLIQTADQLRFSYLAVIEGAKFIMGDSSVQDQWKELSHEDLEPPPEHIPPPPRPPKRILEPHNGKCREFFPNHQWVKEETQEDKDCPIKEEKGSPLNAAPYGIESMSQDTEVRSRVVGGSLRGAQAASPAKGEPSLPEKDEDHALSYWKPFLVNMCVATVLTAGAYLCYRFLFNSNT
In words: PTP1B inhibition (IC50). The test is classed as biochemical.

The next test addresses HPTPβ (Homo sapiens, UniProt P23467). Briefly: HPTPβ inhibition (IC50). It is filed as biochemical.

Chain of HPTPβ (P23467 23-1997): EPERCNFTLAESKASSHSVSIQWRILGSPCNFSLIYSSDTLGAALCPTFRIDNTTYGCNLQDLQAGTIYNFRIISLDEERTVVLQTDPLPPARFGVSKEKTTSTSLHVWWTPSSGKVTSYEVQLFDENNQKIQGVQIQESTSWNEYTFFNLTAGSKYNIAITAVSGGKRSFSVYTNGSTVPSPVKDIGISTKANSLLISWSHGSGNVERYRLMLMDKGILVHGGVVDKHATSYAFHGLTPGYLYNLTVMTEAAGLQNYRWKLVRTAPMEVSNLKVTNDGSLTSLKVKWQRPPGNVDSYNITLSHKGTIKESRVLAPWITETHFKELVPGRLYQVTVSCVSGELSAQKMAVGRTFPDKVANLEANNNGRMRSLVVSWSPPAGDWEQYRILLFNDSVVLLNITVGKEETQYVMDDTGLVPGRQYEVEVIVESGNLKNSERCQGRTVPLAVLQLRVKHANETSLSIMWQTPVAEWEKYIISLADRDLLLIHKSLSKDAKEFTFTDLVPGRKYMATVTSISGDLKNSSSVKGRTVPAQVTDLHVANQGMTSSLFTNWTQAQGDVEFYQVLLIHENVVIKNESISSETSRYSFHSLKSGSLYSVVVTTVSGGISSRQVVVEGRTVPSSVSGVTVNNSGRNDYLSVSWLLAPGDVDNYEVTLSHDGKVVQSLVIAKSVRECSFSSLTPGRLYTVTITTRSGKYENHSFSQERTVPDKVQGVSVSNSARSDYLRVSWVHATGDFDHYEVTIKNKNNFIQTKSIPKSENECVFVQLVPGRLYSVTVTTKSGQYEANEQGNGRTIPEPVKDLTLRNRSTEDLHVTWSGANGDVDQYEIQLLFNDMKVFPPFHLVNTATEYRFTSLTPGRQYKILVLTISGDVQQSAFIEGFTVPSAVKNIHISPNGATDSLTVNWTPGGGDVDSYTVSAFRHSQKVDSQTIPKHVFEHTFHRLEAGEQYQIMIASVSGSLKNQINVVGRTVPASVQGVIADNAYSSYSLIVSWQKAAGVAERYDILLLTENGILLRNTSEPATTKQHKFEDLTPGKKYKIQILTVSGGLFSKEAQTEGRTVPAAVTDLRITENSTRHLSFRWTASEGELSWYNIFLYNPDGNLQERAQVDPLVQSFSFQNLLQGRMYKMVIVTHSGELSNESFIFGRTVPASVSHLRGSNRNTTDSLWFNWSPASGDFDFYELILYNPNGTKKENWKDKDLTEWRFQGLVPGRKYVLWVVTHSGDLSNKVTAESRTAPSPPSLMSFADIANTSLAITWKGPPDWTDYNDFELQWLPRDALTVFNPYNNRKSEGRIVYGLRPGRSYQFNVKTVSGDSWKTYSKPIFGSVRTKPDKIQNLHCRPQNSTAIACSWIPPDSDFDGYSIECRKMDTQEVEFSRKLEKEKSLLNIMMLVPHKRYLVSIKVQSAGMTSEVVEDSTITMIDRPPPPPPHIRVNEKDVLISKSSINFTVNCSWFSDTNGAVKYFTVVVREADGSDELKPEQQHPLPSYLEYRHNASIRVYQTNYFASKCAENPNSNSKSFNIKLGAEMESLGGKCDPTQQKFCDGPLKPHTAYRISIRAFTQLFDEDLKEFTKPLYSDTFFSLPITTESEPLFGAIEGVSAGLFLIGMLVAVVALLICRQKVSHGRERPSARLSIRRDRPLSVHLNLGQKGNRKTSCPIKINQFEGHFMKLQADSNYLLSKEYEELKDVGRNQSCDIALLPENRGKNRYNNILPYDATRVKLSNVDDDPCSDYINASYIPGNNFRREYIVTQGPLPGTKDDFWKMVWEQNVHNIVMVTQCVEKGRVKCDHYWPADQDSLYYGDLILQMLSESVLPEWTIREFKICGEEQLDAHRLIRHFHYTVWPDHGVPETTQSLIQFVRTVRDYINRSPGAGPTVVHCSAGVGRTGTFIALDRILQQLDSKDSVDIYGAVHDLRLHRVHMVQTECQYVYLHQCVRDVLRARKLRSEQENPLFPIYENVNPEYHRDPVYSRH

With `COc1cccc(Cc2csc([C@H](Cc3ccc(NS(=O)(=O)O)cc3)NC(=O)C(C)(C)C)n2)c1` [(S)-4-(2-(4-(3-Methoxybenzyl)thiazol-2-yl)-2-pivalamidoethyl)phenylsulfamic acid], the IC50 came out at 50000 nM at PTP1B and 132 nM against HPTPβ. As to `CCc1csc([C@H](Cc2ccc(NS(=O)(=O)O)cc2)NC(=O)Cc2ccccc2)n1` [(S)-{4-[2-(4-Ethylthiazol-2-yl)-2-(phenylacetylamino)ethyl]-phenyl}sulfamic acid], the IC50 came out at 722 nM against PTP1B and 0.157 nM against HPTPβ. `Cc1csc([C@H](Cc2ccc(NS(=O)(=O)O)cc2)NC(=O)C(C)(C)C)n1` [(S)-4-(2-(4-Methylthiazol-2-yl)-2-pivalamidoethyl)phenyl-sulfamic acid] returned an IC50 against PTP1B of 50000 nM. Take `COc1ccc(-c2csc([C@H](Cc3ccc(NS(=O)(=O)O)cc3)NC(=O)C(C)(C)C)n2)c(OC)c1` [4-((S)-2-(4-(2,4-Dimethoxyphenyl)thiazol-2-yl)-2-pivalamidoethyl)phenyl-sulfamic acid]: the IC50 at PTP1B is 43100 nM; against HPTPβ, 86 nM. In the same order, the values of `CCc1csc([C@H](Cc2ccc(NS(=O)(=O)O)cc2)NC(=O)CNC(=O)OC)n1` [(S)-4-{2-(4-Ethylthiazol-2-yl)-2-[2-(methoxycarbonylamino)acetamido]ethyl}phenylsulfamic acid] are 5260 nM and 20 nM. On to `CCc1csc([C@H](Cc2ccc(NS(=O)(=O)O)cc2)NC(=O)[C@H](CC(C)C)NC(=O)OC)n1` [4-{(S)-2-(4-Ethylthiazol-2-yl)-2-[(S)-2-(methoxycarbonylamino)-4-methylpentanamido]ethyl}phenylsulfamic acid], for which the figures for the IC50 on PTP1B and against HPTPβ were 70 nM and 0.3 nM, respectively. For `CCc1csc([C@H](Cc2ccc(NS(=O)(=O)O)cc2)NC(=O)C(C)(C)C)n1` [(S)-4-(2-(4-Ethylthiazol-2-yl)-2-pivalamidoethyl)phenyl-sulfamic acid], the IC50 was 142000 nM at PTP1B and 85 nM at HPTPβ. The molecule `CC(C)(C)OC(=O)N[C@@H](Cc1ccccc1)C(=O)N[C@@H](Cc1ccc(NS(=O)(=O)O)cc1)c1csc(-c2ccccc2)n1` [4-{(S)-2-(S)-2-(tert-Butoxycarbonylamino)-3-phenylpropanamido-2-(2-phenylthiazol-4-yl)}phenylsulfamic acid] came in with an IC50 against PTP1B of 905 nM. For `CC(=O)N[C@@H](Cc1ccccc1)C(=O)N[C@@H](Cc1ccc(NS(=O)(=O)O)cc1)c1nc(C(C)(C)C)cs1` [4-[(S)-2-((S)-2-Acetamido-3-phenylpropanamido)-2-(4-tert-butylthiazol-2-yl)ethyl]phenylsulfamic acid], the results for the IC50 on PTP1B and against HPTPβ were 1520 nM and 0.3 nM, respectively. In the same order, the values of `COC(=O)N[C@@H](Cc1ccccc1)C(=O)N[C@@H](Cc1ccc(NS(=O)(=O)O)cc1)c1csc(C2CC2)n1` [4-{(S)-2-(2-Cyclopropylthiazol-4-yl)-2-[(S)-2-(methoxy-carbonylamino)-3-phenylpropanamido]ethyl}phenylsulfamic acid] are 1350 nM and 0.2 nM. As to `COC(=O)N[C@@H](Cc1ccccc1)C(=O)N[C@@H](Cc1ccc(NS(=O)(=O)O)cc1)c1nc(CCC(F)(F)F)cs1` [4-{(S)-2-[(S)-2-(Methoxycarbonylamino)-3-phenylpropanamido)-2-[4-(3,3,3-trifluoropropyl)thiazol-2-yl]ethyl}phenylsulfamic acid], the IC50 is 120 nM on PTP1B and 0.08 nM at HPTPβ. For `COC(=O)N[C@@H](Cc1ccccc1)C(=O)N[C@@H](Cc1ccc(NS(=O)(=O)O)cc1)c1csc(-c2ccccc2)n1` [4-{(S)-2-[(S)-2-(Methoxycarbonylamino)-3-phenylpropionamido]-2-(2-phenylthiazole-4-yl)ethyl}phenylsulfamic acid], the IC50 against PTP1B was found to be 508 nM. Turning to `CC(C)(C)OC(=O)N[C@@H](Cc1ccc(NS(=O)(=O)O)cc1)c1ncc(-c2ccccc2)s1` [(S)-4-(2-(tert-Butoxycarbonylamino)-2-(5-phenylthiazol-2-yl)ethyl)-phenyl sulfamic acid], the results for the IC50 against PTP1B and at HPTPβ were 11400 nM and 308 nM, respectively. `COC(=O)N[C@@H](Cc1ccccc1)C(=O)N[C@@H](Cc1ccc(NS(=O)(=O)O)cc1)c1csc(-c2sccc2Cl)n1` [4-{(S)-2-[2-(3-Chlorothiophen-2-yl)thiazol-4-yl]-2-[(S)-2-(methoxycarbonylamino)-3-phenylpropanamido]ethyl}phenylsulfamic acid] displayed an IC50 against PTP1B of 950 nM. Still for that read-out and setting: to `COC(=O)N[C@@H](Cc1ccccc1)C(=O)N[C@@H](Cc1ccc(NS(=O)(=O)O)cc1)c1csc(-c2ccco2)n1` belongs 5000 nM. Still for that read-out and setting: to `CCc1nc([C@H](Cc2ccc(NS(=O)(=O)O)cc2)NC(=O)[C@H](Cc2ccccc2)NC(=O)OC)sc1-c1ccccc1` [4-{(S)-2-(4-Ethyl-5-phenylthiazol-2-yl)-2-[(S)-2-(methoxy-carbonylamino)-3-phenyl-propanamido]ethyl}phenylsulfamic acid] belongs 390 nM; to `COC(=O)N[C@@H](Cc1ccccc1)C(=O)N[C@@H](Cc1ccc(NS(=O)(=O)O)cc1)c1csc(-c2cccs2)n1` [4-{(S)-2-[(S)-2-(Methoxycarbonylamino)-3-phenylpropanamido]-2-[2-(thiophen-2-yl)thiazol-4-yl]ethyl}phenylsulfamic acid], 604 nM; to “4-((S)-2-(4-Ethylthiazol-2-yl)-2-{(S)-2-[2-(methoxycarbonylamino)-acetamido]-3-phenylpropanamido}ethyl)phenylsulfamic acid”, 299 nM.

Regarding `COC(=O)N[C@@H](Cc1ccccc1)C(=O)N[C@@H](Cc1ccc(NS(=O)(=O)O)cc1)c1csc(-c2sccc2C)n1` [4-{(S)-2-[(S)-2-(Methoxycarbonylamino)-3-phenylpropanamido]-2-[2-(3-methylthiophen-2-yl)thiazol-4-yl]ethyl}phenylsulfamic acid], at PTP1B, the IC50 came to 1090 nM. This IC50 is about 3.6-fold higher than that of the molecule before. For the molecule `COC(=O)N[C@@H](Cc1ccccc1)C(=O)N[C@@H](Cc1ccc(NS(=O)(=O)O)cc1)c1nc(-c2ccc(Cl)s2)cs1` [4-{(S)-2-[4-(5-Chlorothiophen-2-yl)thiazol-2-yl]-2-[(S)-2-(methoxycarbonylamino)-3-phenylpropanamido]ethyl}phenyl-sulfamic acid], the IC50 on PTP1B was found to be 370 nM. The same measure, in the same setting: with `COC(=O)N[C@@H](Cc1ccccc1)C(=O)N[C@@H](Cc1ccc(NS(=O)(=O)O)cc1)c1nc(C2CCCCC2)cs1` [4-{(S)-2-(4-Cyclohexylthiazol-2-yl)-2-[(S)-2-(methoxycarbonylamino)-3-phenyl-propanamido]ethyl}phenylsulfamic acid] the figure was 1780 nM; with `COC(=O)N[C@@H](Cc1ccccc1)C(=O)N[C@@H](Cc1ccc(NS(=O)(=O)O)cc1)c1nc(-c2ccccc2)cs1` [4-{(S)-2-[(S)-2-(Methoxycarbonylamino)-3-phenylpropanamido]-2-(4-phenylthiazol-2-yl)ethyl}phenylsulfamic acid], 597 nM. With `COC(=O)N[C@@H](Cc1ccccc1)C(=O)N[C@@H](Cc1ccc(NS(=O)(=O)O)cc1)c1nc(-c2cccs2)cs1` [4-{(S)-2-[(S)-2-(Methoxycarbonylamino)-3-phenylpropanamido]-2-[4-(thiophen-2-yl)thiazol-2-yl]ethyl}phenylsulfamic acid], the IC50 at PTP1B is 990 nM.

The values are drawn from patent US8258311B2, “Human protein tyrosine phosphatase inhibitors and methods of use” (Aerpio Therapeutics Inc., priority 2006, dated 2012).
